According to PubChem BioAssay AID504473 (NMMLSC, 2011):
Activity calls are given as the source filed them.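 Rule for the calls: active = GFP ratio to DMSO above 1.5 or below 0.66; inactive = the rest.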

Columns and labels:
Test in all cases: TOR pathway GFP reporter clone modulation in yeast – S. cerevisiae, GFP-tagged clone panel, flow cytometry (AID 504473);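 note: median GFP fluorescence of the cells measured by high-throughput flow cytometry; test concentration not given here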
YJR148W = settings: S. cerevisiae GFP-tagged strains, 3 h
YPL131W = settings: S. cerevisiae GFP-tagged strains, 3 h
YCR002C = settings: S. cerevisiae GFP-tagged strains, 3 h
YML128C = settings: S. cerevisiae GFP-tagged strains, 3 h
YML026C = settings: S. cerevisiae GFP-tagged strains, 3 h
YIL066C = settings: S. cerevisiae GFP-tagged strains, 3 h
YAL061W = settings: S. cerevisiae GFP-tagged strains, 3 h
YNL015W = settings: S. cerevisiae GFP-tagged strains, 3 h
YER081W = settings: S. cerevisiae GFP-tagged strains, 3 h
YGR121C = settings: S. cerevisiae GFP-tagged strains, 3 h
YGL147C = settings: S. cerevisiae GFP-tagged strains, 3 h
YHR141C = settings: S. cerevisiae GFP-tagged strains, 3 h
YEL007W = settings: S. cerevisiae GFP-tagged strains, 3 h
YKL119C = settings: S. cerevisiae GFP-tagged strains, 3 h
YPL111W = settings: S. cerevisiae GFP-tagged strains, 3 h
YGL036W = settings: S. cerevisiae GFP-tagged strains, 3 h
YLR109W = settings: S. cerevisiae GFP-tagged strains, 3 h
YLR237W = settings: S. cerevisiae GFP-tagged strains, 3 h
YDL130W = settings: S. cerevisiae GFP-tagged strains, 3 h
YOR136W = settings: S. cerevisiae GFP-tagged strains, 3 h
YDR382W = settings: S. cerevisiae GFP-tagged strains, 3 h
YBR208C = settings: S. cerevisiae GFP-tagged strains, 3 h
YKR039W = settings: S. cerevisiae GFP-tagged strains, 3 h
YKR093W = settings: S. cerevisiae GFP-tagged strains, 3 h
YGR019W = settings: S. cerevisiae GFP-tagged strains, 3 h
YIL051C = settings: S. cerevisiae GFP-tagged strains, 3 h
YBR248C = settings: S. cerevisiae GFP-tagged strains, 3 h
YGL062W = settings: S. cerevisiae GFP-tagged strains, 3 h
YKL103C = settings: S. cerevisiae GFP-tagged strains, 3 h
YLR287C-A = settings: S. cerevisiae GFP-tagged strains, 3 h
YCR005C = settings: S. cerevisiae GFP-tagged strains, 3 h
YBR072W = settings: S. cerevisiae GFP-tagged strains, 3 h
YNL214W = settings: S. cerevisiae GFP-tagged strains, 3 h
YOR375C = settings: S. cerevisiae GFP-tagged strains, 3 h
YDR070C = settings: S. cerevisiae GFP-tagged strains, 3 h
YML004C = settings: S. cerevisiae GFP-tagged strains, 3 h
YOR182C = settings: S. cerevisiae GFP-tagged strains, 3 h
YHR144C = settings: S. cerevisiae GFP-tagged strains, 3 h
YMR120C = settings: S. cerevisiae GFP-tagged strains, 3 h
YEL071W = settings: S. cerevisiae GFP-tagged strains, 3 h
YDR399W = settings: S. cerevisiae GFP-tagged strains, 3 h
YLR142W = settings: S. cerevisiae GFP-tagged strains, 3 h
YGR034W = settings: S. cerevisiae GFP-tagged strains, 3 h
[1] = molecular target: General amino acid permease AGP1 (Saccharomyces cerevisiae S288c) (UniProt P25376); settings: S. cerevisiae GFP-tagged strains, 3 h, YCL025C
Sequence of General amino acid permease AGP1 (Saccharomyces cerevisiae S288c) (P25376 whole entry, looked up): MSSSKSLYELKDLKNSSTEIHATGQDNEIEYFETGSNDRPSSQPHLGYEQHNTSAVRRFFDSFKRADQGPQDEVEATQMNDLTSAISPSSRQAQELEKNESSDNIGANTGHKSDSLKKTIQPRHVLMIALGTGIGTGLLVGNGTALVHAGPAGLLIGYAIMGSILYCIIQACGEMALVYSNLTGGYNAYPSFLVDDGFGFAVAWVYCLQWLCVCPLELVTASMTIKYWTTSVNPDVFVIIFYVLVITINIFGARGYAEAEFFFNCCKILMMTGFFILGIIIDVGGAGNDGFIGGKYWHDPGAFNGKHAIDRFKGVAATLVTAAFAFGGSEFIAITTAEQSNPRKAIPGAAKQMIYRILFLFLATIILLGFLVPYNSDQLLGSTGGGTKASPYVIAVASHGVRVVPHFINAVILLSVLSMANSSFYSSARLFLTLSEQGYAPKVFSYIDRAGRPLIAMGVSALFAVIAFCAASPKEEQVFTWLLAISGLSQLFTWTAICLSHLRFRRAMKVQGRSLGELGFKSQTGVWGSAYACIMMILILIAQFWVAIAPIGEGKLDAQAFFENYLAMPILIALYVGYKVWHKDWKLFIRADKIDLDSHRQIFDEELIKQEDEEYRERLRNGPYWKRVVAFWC

YOR063W = settings: S. cerevisiae GFP-tagged strains, 3 h
YLR185W = settings: S. cerevisiae GFP-tagged strains, 3 h
YGL135W = settings: S. cerevisiae GFP-tagged strains, 3 h
YHL021C = settings: S. cerevisiae GFP-tagged strains, 3 h
YJL056C = settings: S. cerevisiae GFP-tagged strains, 3 h
YLL039C = settings: S. cerevisiae GFP-tagged strains, 3 h
YOR371C = settings: S. cerevisiae GFP-tagged strains, 3 h
YBL087C = settings: S. cerevisiae GFP-tagged strains, 3 h
YPL265W = settings: S. cerevisiae GFP-tagged strains, 3 h
YNR001C = settings: S. cerevisiae GFP-tagged strains, 3 h
YDR453C = settings: S. cerevisiae GFP-tagged strains, 3 h
YKR094C = settings: S. cerevisiae GFP-tagged strains, 3 h
YPR132W = settings: S. cerevisiae GFP-tagged strains, 3 h
YMR105C = settings: S. cerevisiae GFP-tagged strains, 3 h
YLR058C = settings: S. cerevisiae GFP-tagged strains, 3 h
YNL068C = settings: S. cerevisiae GFP-tagged strains, 3 h
YER151C = settings: S. cerevisiae GFP-tagged strains, 3 h
YER156C = settings: S. cerevisiae GFP-tagged strains, 3 h
YIL069C = settings: S. cerevisiae GFP-tagged strains, 3 h
YPL220W = settings: S. cerevisiae GFP-tagged strains, 3 h
YML034W = settings: S. cerevisiae GFP-tagged strains, 3 h
YFR053C = settings: S. cerevisiae GFP-tagged strains, 3 h
YPL150W = settings: S. cerevisiae GFP-tagged strains, 3 h
YMR251W-A = settings: S. cerevisiae GFP-tagged strains, 3 h
YDL204W = settings: S. cerevisiae GFP-tagged strains, 3 h
YJL144W = settings: S. cerevisiae GFP-tagged strains, 3 h
YBR139W = settings: S. cerevisiae GFP-tagged strains, 3 h
YPR145W = settings: S. cerevisiae GFP-tagged strains, 3 h
YCL064C = settings: S. cerevisiae GFP-tagged strains, 3 h
YNL142W = settings: S. cerevisiae GFP-tagged strains, 3 h
YEL063C = settings: S. cerevisiae GFP-tagged strains, 3 h
YOL052C-A = settings: S. cerevisiae GFP-tagged strains, 3 h
YMR307W = settings: S. cerevisiae GFP-tagged strains, 3 h
YKL086W = settings: S. cerevisiae GFP-tagged strains, 3 h
YDL205C = settings: S. cerevisiae GFP-tagged strains, 3 h
YGR088W = settings: S. cerevisiae GFP-tagged strains, 3 h
YHR203C = settings: S. cerevisiae GFP-tagged strains, 3 h
YAL060W = settings: S. cerevisiae GFP-tagged strains, 3 h
YLL026W = settings: S. cerevisiae GFP-tagged strains, 3 h
YNL112W = settings: S. cerevisiae GFP-tagged strains, 3 h
YHR087W = settings: S. cerevisiae GFP-tagged strains, 3 h
YIL043C = settings: S. cerevisiae GFP-tagged strains, 3 h
YOR038C = settings: S. cerevisiae GFP-tagged strains, 3 h
YML063W = settings: S. cerevisiae GFP-tagged strains, 3 h
YOR173W = settings: S. cerevisiae GFP-tagged strains, 3 h
YPR184W = settings: S. cerevisiae GFP-tagged strains, 3 h
YEL060C = settings: S. cerevisiae GFP-tagged strains, 3 h
YHR018C = settings: S. cerevisiae GFP-tagged strains, 3 h
YLR367W = settings: S. cerevisiae GFP-tagged strains, 3 h
YFR031C-A = settings: S. cerevisiae GFP-tagged strains, 3 h
YER117W = settings: S. cerevisiae GFP-tagged strains, 3 h
YIL052C = settings: S. cerevisiae GFP-tagged strains, 3 h

Measured: GFP ratio to DMSO

CNc1nc(N)c([N+](=O)[O-])c(Nc2ccccc2OC)n1
inactive: YJR148W 0.822 | YPL131W 0.657 | YML128C 0.697 | YIL066C 0.693 | YAL061W 0.668 | YGR121C 0.737 | YGL147C 0.902 | YHR141C 1.25 | YEL007W 0.721 | YKL119C 0.774 | YPL111W 0.779 | YOR136W 0.793 | YBR208C 0.657 | YKR039W 1.41 | YGR019W 0.679 | YIL051C 0.669 | YBR248C 0.723 | YGL062W 0.915 | YKL103C 0.755 | YCR005C 0.783 | YNL214W 0.786 | YOR375C 0.81 | YML004C 0.689 | YHR144C 0.68 | YEL071W 0.904 | YLR142W 0.7 | [1] 0.804 | YOR063W 0.813 | YLR185W 1.38 | YGL135W 1.01 | YHL021C 0.726 | YJL056C 0.664 | YOR371C 0.67 | YNR001C 0.75 | YKR094C 0.863 | YMR105C 0.849 | YNL068C 0.738 | YER151C 0.745 | YER156C 0.819 | YIL069C 0.717 | YML034W 0.676 | YPL150W 0.677 | YDL204W 0.703 | YBR139W 0.664 | YPR145W 0.81 | YCL064C 0.707 | YNL142W 0.756 | YEL063C 0.998 | YMR307W 0.757 | YKL086W 0.777 | YDL205C 0.742 | YGR088W 0.767 | YHR203C 0.792 | YLL026W 0.761 | YNL112W 0.867 | YIL043C 0.829 | YOR038C 0.771 | YOR173W 0.726 | YPR184W 0.669 | YLR367W 0.847
active: YCR002C 0.541 | YML026C 1.64 | YNL015W 1.84 | YER081W 0.632 | YGL036W 0.643 | YLR109W 0.271 | YLR237W 3.5 | YDL130W 0.302 | YDR382W 0.349 | YKR093W 0.526 | YLR287C-A 0.309 | YBR072W 3.23 | YDR070C 0.503 | YOR182C 3.17 | YMR120C 0.433 | YDR399W 2.04 | YGR034W 0.607 | YLL039C 0.576 | YBL087C 1.71 | YPL265W 0.542 | YDR453C 5.92 | YPR132W 1.76 | YLR058C 0.606 | YPL220W 0.579 | YFR053C 0.642 | YMR251W-A 0.286 | YJL144W 7.28 | YOL052C-A 2.31 | YAL060W 0.645 | YHR087W 1.71 | YML063W 0.482 | YEL060C 0.535 | YHR018C 0.649 | YFR031C-A 0.381 | YER117W 2.43 | YIL052C 0.379
